According to patent US11286238B2, “Melatonin derivatives, method thereof, and use thereof” (Xiamen Nuokangde Biological Technology Co., Ltd., priority 2020, dated 2022):

Key:
B16F10 cell lines = assay: Cytotoxicity assay (CCK-8); type: cell-based; details: for Effect on cell proliferation at a low concentration / Effect on cell proliferation rate at higher concentrations: B16F10, 24 hours; for Effect on cell proliferation at a low concentration: CCK-8, absorbance 450 nm; for Effect on cell proliferation rate at higher concentrations: CCK-8, 5 mM and 10 mM
Description: B16F10 cell lines were incubated into a plate with 96 wells. After cell adherence, a Mel solution with different concentrations or a Mels solution with different concentrations was respectively added to one of the 96 wells in turn. Final concentrations of the Mel solution or the Mels solution were respectively 10 μM (10 μmol/L), 100 μM (100 μmol/L), 1 mM (1 mmol/L), 5 mM (5 mmol/L), and 10 mM (10 mmol/L). After incubating for 24 hours, CCK-8 (Cell Counting Kit-8) was added into each one of the 96 wells. Absorbance of the Mel solution and the Mels solution was measured at 450 nm.

[1] = as disclosed in SCCS Opinion on MLT, 23 Mar. 2010; cited from earlier work
[2] = Solubility determination in water; type: physicochemical
Description: In order to evaluate solubility of a new melatonin derivative of Embodiment 1, solubility of Mel and Mels were tested. […] Therefore, the solubility of Mels is nearly 700 times (695 times) the solubility of Mel (FIG. 4). Good water solubility of Mels can greatly improve application and greatly contribute to the research of this molecule in the field of medicine and biology.

mice = assay: Sleep experiment in sodium pentobarbital mouse sleep models; type: in vivo
Description: Mouse sleep models were established by injecting 300 μL 1% sodium pentobarbital solution into mice, and then dividing the mice into three groups. Each group comprised five mice. A first group of the three groups were injected with 100 μL normal saline as a control group, a second group of the three groups were injected with 100 μL natural unmodified melatonin (Mel) solution, a concentration of Mel was 86 μM (86 μmol/L) or 860 nM (860 nmol/L), and a third group of the three groups was injected with modified melatonin (Mels) solution with the same concentration and volume as that of the second group. A sleep duration began to be recorded one minute after a loss of righting reflex, and recording ended when the righting reflex returned.

C57/B6 mice = assay: Safety verification in vivo (body weight and diet changes); set-up: species or system mouse; details: intraperitoneal
Description: To test a safety of Mels of Embodiment 1 in vivo, Mel, Mels, or saline was intraperitoneally injected into mice. Using C57/B6 mice (about 18 g), the mice were randomly divided into three groups: a control group, a Mel group, and a Mels group. Then, 200 μL of normal saline, Mel and Mels solution (dissolving Mel and Mels in saline containing 5% DMSO, 10 mmol/L) were respectively intraperitoneally injected into the mice. The injection process was repeated three times at days 2, 6, and 10, and body weight changes and diet changes of mice were recorded. […] In short, Mels has lower toxicity and good safety in vitro and in vivo.

Row | Compound | Effect on cell proliferation at a low concentration (B16F10 cell lines) | Effect on cell proliferation rate at higher concentrations (B16F10 cell lines) | Solubility in 100 mL water [1] [g] | solubility ([2]; in 100 mL water) [mg/mL] | Solubility of Mels relative to solubility of Mel ([2]; water solubility ratio versus melatonin) [times] | Sleep time of mice (mice; mice given 300 μL 1% sodium pentobarbital, 100 μL of 86 μM or 860 nM solution injected, prolonged from 1 hour) [h] | Effect on sleep compared with Mel (mice; same concentration and volume as Mel (86 μM or 860 nM, 100 μL)) | Cytotoxicity on cells compared with Mel (B16F10 cell lines; B16F10, at an even higher concentration) | Effect on body weights and diets of the mice (C57/B6 mice; 200 μL of 10 mmol/L in saline with 5% DMSO, days 2, 6 and 10, versus control group and Mel group) | Safety in vivo (C57/B6 mice; C57/B6 mice, 10 mmol/L, 200 μL, three injections)
1 | COc1ccc2[nH]cc(CCNC(C)=O)c2c1 [Mel, melatonin] | no effects on cell proliferation | affected cell proliferation rate | 0.2 | – | – | – | – | – | – | –
2 | COc1ccc2c(c1)c(CCNC(C)=O)cn2CCCCS(=O)(=O)[O-].[Na+] [Mels, 4-(3-(2-acetamidoethyl)-5-methoxy-1H-indol-1-yl) butane-1-sulfonate] | no effects on cell proliferation | little affected on cell proliferation rate | – | 1600 | 695 | 3 | same effect as Mel | much smaller than that of Mel | no significant effect | good safety in vivo
